# According to publication PMC5880951, “Pentocin MQ1: A Novel, Broad-Spectrum, Pore-Forming Bacteriocin From Lactobacillus pentosus CS2 With Quorum Sensing Regulatory Mechanism and Biopreservative Potential” (Frontiers in Microbiology, 2018):
# Legend:
# [1] = test system: M. luteus; conditions: within 30 min; ref Barbour et al., 2016; cited from earlier work
# Source text: The two main modes of action of LAB bacteriocins against Gram-positive bacteria are pore formation and inhibition of cell wall synthesis (Cotter et al., [2013]). […] This implies that pore formation is a more rapid killing mechanism.
# [2] = test system: Micrococcus luteus ATCC 10240; assay: Membrane permeabilization (pore formation), SYTOX green; type: cell-based; conditions: 5 μM SYTOX green, pentocin MQ1 at 5 X MIC, nisin as positive control, Real-Time PCR read-out, triplicates
# Procedure: Pore formation assay was done to understand the mechanism of action of pentocinMQ1. M. luteus was grown in Mueller-Hinton broth until OD600nm = 0.45 after which 5 μM SYTOX green dye (Invitrogen, USA) was added. Ninety microliters of stained bacteria was added to MicroAmp Fast Optical 96-well reaction plate (Applied Biosystems, Life Technologies, USA). After a stable line base was attained, 10 μl of pentocin MQ1 (5 X MIC) was added to the stained bacteria. Sodium phosphate buffer (5 mM) and nisin (Sigma-Aldrich, USA) were added to stained bacteria in different wells to serve as negative and positive controls, respectively. Experiments were done in triplicates. Fluorescence as a result of binding of SYTOX green to leaked intracellular DNA was monitored using Real-Time PCR (Applied Biosystems, USA).
# [3] = test system: Bacillus spp.; conditions: ref Mota-Meira et al., 2000; cited from earlier work
# Procedure: (§1) Pentocin MQ1 was strongly inhibitory against L. monocytogenes NCTC 10890, M. luteus ATCC 10240, and B. cereus ATCC14579 at micromolar concentrations. High activity at low concentration is a desirable property of natural biopreservatives (Bali et al., [2016]). MIC-values for nisin A against Micrococcus spp. and Bacillus spp. (Mota-Meira et al., [2000]) are lower than that of pentocin MQ1. […] After 120 min ...
# [4] = test system: Micrococcus spp.; conditions: ref Mota-Meira et al., 2000; cited from earlier work
# Procedure: as §1
Substance,increase in fluorescence [1],fluorescence intensity (SYTOX green binding to leaked intracellular DNA) [2],MIC compared with pentocin MQ1 [3],MIC compared with pentocin MQ1 [4]
nisin,caused an increase in fluorescence intensity,higher fluorescence intensity,,
nisin A,,,lower,lower
